Data as given in PubChem BioAssay AID248 (DTP/NCI, 2004).
Where “and” joins values, the source holds several entries; their conditions need not be identical. Identical values can stand only once. Toxic doses and inconclusive results are not listed. Cut-off read from the data, not from the text of the source: active = T/C of 150% or more; inactive = T/C below 125%.

System: L1210 leukemia ip in BDF1 mice, survival T/C
Assay: NCI In Vivo Anticancer Drug Screen. Data for tumor model L1210 Leukemia (intraperitoneal) in B6D2F1 (BDF1) mice
Conditions: endpoint: mean survival time, higher = longer survival
How it was run: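 Each compound was tested against a transplantable tumor grown in mice. The endpoint was survival, with treated animals benchmarked against vehicle controls as a simple ratio.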

[1] = dose: 100.0 mg/kg/injection, schedule: Q01DX009 (ip), vehicle: saline with Tween-80
[2] = dose: 100.0 mg/kg/injection, schedule: Q04DX003 (ip), vehicle: saline with Tween-80
[3] = dose: 200.0 mg/kg/injection, schedule: Q01DX009 (ip), vehicle: saline with Tween-80
[4] = dose: 200.0 mg/kg/injection, schedule: Q04DX003 (ip), vehicle: saline with Tween-80
[5] = dose: 400.0 mg/kg/injection, schedule: Q01DX009 (ip), vehicle: saline with Tween-80
[6] = dose: 400.0 mg/kg/injection, schedule: Q04DX003 (ip), vehicle: saline with Tween-80
[7] = dose: 100.0 mg/kg/injection, schedule: Q01DX009 (ip), vehicle: saline
[8] = dose: 200.0 mg/kg/injection, schedule: Q01DX009 (ip), vehicle: saline
[9] = dose: 400.0 mg/kg/injection, schedule: Q01DX009 (ip), vehicle: saline
[10] = dose: 75.0 mg/kg/injection, schedule: Q01DX001 (ip), vehicle: saline
[11] = dose: 150.0 mg/kg/injection, schedule: Q01DX001 (ip), vehicle: saline
[12] = dose: 100.0 mg/kg/injection, schedule: Q04DX003 (ip), vehicle: Klucel (hydroxypropylcellulose) (HPC)
[13] = dose: 200.0 mg/kg/injection, schedule: Q04DX003 (ip), vehicle: Klucel (hydroxypropylcellulose) (HPC)
[14] = dose: 400.0 mg/kg/injection, schedule: Q04DX003 (ip), vehicle: Klucel (hydroxypropylcellulose) (HPC)
[15] = dose: 50.0 mg/kg/injection, schedule: Q01DX009 (ip), vehicle: Klucel (hydroxypropylcellulose) (HPC)
[16] = dose: 100.0 mg/kg/injection, schedule: Q01DX001 (ip), vehicle: saline
[17] = dose: 200.0 mg/kg/injection, schedule: Q01DX001 (ip), vehicle: saline
[18] = dose: 50.0 mg/kg/injection, schedule: Q01DX009 (ip), vehicle: saline with Tween-80
[19] = dose: 50.0 mg/kg/injection, schedule: Q04DX003 (ip), vehicle: Klucel (hydroxypropylcellulose) (HPC)
[20] = dose: 100.0 mg/kg/injection, schedule: Q04DX002 (ip), vehicle: saline with Tween-80
[21] = dose: 200.0 mg/kg/injection, schedule: Q04DX002 (ip), vehicle: saline with Tween-80
[22] = dose: 400.0 mg/kg/injection, schedule: Q04DX002 (ip), vehicle: saline with Tween-80
[23] = dose: 100.0 mg/kg/injection, schedule: Q01DX001 (ip), vehicle: carboxymethylcellulose (CMC)
[24] = dose: 200.0 mg/kg/injection, schedule: Q01DX001 (ip), vehicle: carboxymethylcellulose (CMC)
[25] = dose: 400.0 mg/kg/injection, schedule: Q01DX001 (ip), vehicle: carboxymethylcellulose (CMC)

Measured: T/C

CCCCOC(=O)C1CCCC1=O (stereo unspecified)
inactive: [1] 94 % of control | [2] 97 % of control | [3] 103 % of control | [4] 94 % of control | [5] 95 % of control | [6] 97 % of control

COc1cc(CC2=NCCc3cc(OC)c(OCc4ccccc4)cc32)ccc1OCc1ccccc1
inactive: [1] 94 % of control | [3] 100 % of control

CC(=O)CC(=O)N1CCN(C(=O)CC(C)=O)CC1
inactive: [7] 100 % of control | [8] 96 % of control | [9] 100 % of control

C=CC(=O)N(CCN1CCOCC1)C(C)C
inactive: dose: 100.0 mg/kg/injection, schedule: Q04DX002 (ip), vehicle: saline 94 % of control | dose: 200.0 mg/kg/injection, schedule: Q04DX002 (ip), vehicle: saline 97 % of control | dose: 400.0 mg/kg/injection, schedule: Q04DX002 (ip), vehicle: saline 94 % of control

C\C(=C/C(=N/N=C/c1ccco1)c1ccccc1)c1ccccc1
inactive: [10] 103 % of control | [11] 104 % of control

S=C([S][Sn]([c]1ccccc1)([c]1ccccc1)[c]1ccccc1)N1CCOCC1
inactive: [12] 100 % of control | [13] 96 % of control | [14] 94 % of control

CNC(=O)ON=C1CCC(CC2CCCCC2)CC1 (stereo unspecified)
inactive: [15] 100 % of control | dose: 100.0 mg/kg/injection, schedule: Q01DX009 (ip), vehicle: Klucel (hydroxypropylcellulose) (HPC) 91 % of control | [12] 92 % of control | dose: 200.0 mg/kg/injection, schedule: Q01DX009 (ip), vehicle: Klucel (hydroxypropylcellulose) (HPC) 96 % of control | [13] 94 % of control

NCC(=O)c1ccc(Cl)cc1
inactive: [16] 102 % of control | [17] 104 % of control

O=C(COc1ccc(Cl)cc1)OCCBr
inactive: dose: 100.0 mg/kg/injection, schedule: Q04DX002 (ip), vehicle: Klucel (hydroxypropylcellulose) (HPC) 121 % of control | dose: 200.0 mg/kg/injection, schedule: Q04DX002 (ip), vehicle: Klucel (hydroxypropylcellulose) (HPC) 105 % of control | dose: 400.0 mg/kg/injection, schedule: Q04DX002 (ip), vehicle: Klucel (hydroxypropylcellulose) (HPC) 102 % of control

COc1ccc(CC(=O)NC(N)=O)cc1
inactive: [2] 101 % of control | [4] 97 % of control | [6] 90 % of control

COc1ccc(-n2c(=O)c(N=Nc3ccccc3C)c(O)n(-c3ccccc3OC)c2=S)cc1
inactive: dose: 75.0 mg/kg/injection, schedule: Q01DX001 (ip), vehicle: Klucel (hydroxypropylcellulose) (HPC) 97 % of control | dose: 150.0 mg/kg/injection, schedule: Q01DX001 (ip), vehicle: Klucel (hydroxypropylcellulose) (HPC) 92 % of control

CCOC(=O)C(C(=O)OCC)C1CCCC(=O)C1 (stereo unspecified)
inactive: [18] 92 % of control | [1] 96 % of control | [3] 92 % of control

O=C(O)C1C(C(=O)Nc2cc(C(F)(F)F)ccc2Cl)C2(Cl)C(Cl)=C(Cl)C1(Cl)C2(Cl)Cl (stereo unspecified)
inactive: dose: 25.0 mg/kg/injection, schedule: Q01DX009 (ip), vehicle: Klucel (hydroxypropylcellulose) (HPC) 97 % of control | [15] 95 % of control | [19] 95 % of control | [12] 93 % of control and 91 % of control

CCCc1ccccc1NC(=O)NCCCl
inactive: dose: 25.0 mg/kg/injection, schedule: Q04DX003 (ip), vehicle: Klucel (hydroxypropylcellulose) (HPC) 106 % of control | [19] 101 % of control | [12] 105 % of control and 86 % of control | [13] 89 % of control | [14] 88 % of control

Cc1c(Cl)cccc1NC(=S)NC(=O)c1ccccc1
inactive: [20] 110 % of control | [21] 100 % of control | [22] 89 % of control

Nc1ccn(C2OC(COP(=O)(O)Oc3ccccc3)C(O)C2O)c(=O)n1 (stereo unspecified)
inactive: [10] 109 % of control | [11] 113 % of control

COC(=O)CC1C(C)(C)C(=O)C2CC3=C4CC(=O)OC(c5ccoc5)C4(C)CCC3C1(C)C2=O (stereo unspecified)
inactive: [23] 97 % of control | [24] 92 % of control | [25] 90 % of control

c1ccc2c(c1)ccc1c2ccc2cccc[n+]21
inactive: dose: 1.25 mg/kg/injection, schedule: Q01DX001 (ip), vehicle: saline 97 % of control | dose: 2.5 mg/kg/injection, schedule: Q01DX001 (ip), vehicle: saline 97 % of control | dose: 5.0 mg/kg/injection, schedule: Q01DX001 (ip), vehicle: saline 103 % of control | dose: 5.0 mg/kg/injection, schedule: Q01DX015 (ip), vehicle: saline 103 % of control | dose: 10.0 mg/kg/injection, schedule: Q01DX001 (ip), vehicle: saline 107 % of control

CCO/C(=C\C(=O)c1ccccc1)c1ccccc1
inactive: dose: 50.0 mg/kg/injection, schedule: Q01DX009 (ip), vehicle: saline sonified 92 % of control | dose: 100.0 mg/kg/injection, schedule: Q01DX009 (ip), vehicle: saline sonified 95 % of control | dose: 200.0 mg/kg/injection, schedule: Q01DX009 (ip), vehicle: saline sonified 94 % of control

O=C(O)CCc1ccccc1-c1ccccc1
inactive: dose: 50.0 mg/kg/injection, schedule: Q04DX002 (ip), vehicle: saline with Tween-80 96 % of control | [20] 101 % of control | [21] 96 % of control | [22] 107 % of control

CC(=O)Nc1nc(C)c(CCCN(c2ccccc2)S(=O)(=O)c2ccc(N)cc2)c(=O)[nH]1
inactive: dose: 200.0 mg/kg/injection, schedule: Q01DX001 (ip), vehicle: Klucel (hydroxypropylcellulose) (HPC) 88 % of control

O=C(Nc1ccc(C(=O)Cl)cc1)OCCCl
inactive: [2] 96 % of control | [4] 96 % of control | [6] 96 % of control

O=C(CCN1CC1)NCCc1ccccc1
inactive: dose: 20.0 mg/kg/injection, schedule: Q04DX003 (ip), vehicle: Klucel (hydroxypropylcellulose) (HPC) 92 % of control | dose: 40.0 mg/kg/injection, schedule: Q04DX003 (ip), vehicle: Klucel (hydroxypropylcellulose) (HPC) 95 % of control | [12] 86 % of control

COc1ccc(Cc2c3cc(OC)c(OC)cc3cc[n+]2C)cc1OC
inactive: dose: 12.5 mg/kg/injection, schedule: Q01DX009 (ip), vehicle: saline with Tween-80 103 % of control | dose: 25.0 mg/kg/injection, schedule: Q01DX009 (ip), vehicle: saline with Tween-80 100 % of control | [18] 105 % of control and 106 % of control | [2] 98 % of control | [4] 95 % of control

C=C1C(=O)CCC1C(=O)O (stereo unspecified)
inactive: [7] 101 % of control | [8] 110 % of control | [9] 112 % of control

O=C1C2C3CCC(O3)C2C(=O)N1CC#CCCl (stereo unspecified)
inactive: dose: 6.25 mg/kg/injection, schedule: Q04DX002 (ip), vehicle: saline with Tween-80 100 % of control | dose: 12.5 mg/kg/injection, schedule: Q04DX002 (ip), vehicle: saline with Tween-80 106 % of control

CC12CCC(C(Br)C1=O)C2(C)CS(=O)(=O)O (stereo unspecified)
inactive: [16] 104 % of control and 101 % of control | [7] 89 % of control | dose: 100.0 mg/kg/injection, schedule: Q04DX003 (ip), vehicle: saline 95 % of control | [17] 93 % of control and 104 % of control | [8] 97 % of control | dose: 200.0 mg/kg/injection, schedule: Q04DX003 (ip), vehicle: saline 97 % of control | dose: 400.0 mg/kg/injection, schedule: Q01DX001 (ip), vehicle: saline 104 % of control | [9] 92 % of control | dose: 400.0 mg/kg/injection, schedule: Q04DX003 (ip), vehicle: saline 95 % of control

COc1ccccc1NC(=O)NO
inactive: [23] 97 % of control | [24] 97 % of control | [25] 100 % of control

CCOC(=O)c1c(C)cc(O)cc1O
inactive: [1] 114 % of control | [3] 106 % of control | [5] 102 % of control

CCOC(=O)CNC(=O)Nc1cc(OC)ccc1OC
inactive: [1] 96 % of control | [3] 95 % of control | [5] 100 % of control
